According to ChEMBL document CHEMBL5291721, “A preclinical secondary pharmacology resource illuminates target-adverse drug reaction associations of marketed drugs” (Nat Commun, 2023):

Columns and labels:
[1] = biological target: Gamma-aminobutyric acid receptor subunit alpha-1 (Rattus norvegicus, UniProt P62813)
Cannabinoid receptor 1 [2] = biological target: T1, Cannabinoid receptor 1 (Homo sapiens, UniProt P21554); assay type: functional, cell-based
[3] = biological target: T2, Muscarinic acetylcholine receptor M2 (Homo sapiens, UniProt P08172); assay type: functional, cell-based
T2 sequence (P08172 whole entry): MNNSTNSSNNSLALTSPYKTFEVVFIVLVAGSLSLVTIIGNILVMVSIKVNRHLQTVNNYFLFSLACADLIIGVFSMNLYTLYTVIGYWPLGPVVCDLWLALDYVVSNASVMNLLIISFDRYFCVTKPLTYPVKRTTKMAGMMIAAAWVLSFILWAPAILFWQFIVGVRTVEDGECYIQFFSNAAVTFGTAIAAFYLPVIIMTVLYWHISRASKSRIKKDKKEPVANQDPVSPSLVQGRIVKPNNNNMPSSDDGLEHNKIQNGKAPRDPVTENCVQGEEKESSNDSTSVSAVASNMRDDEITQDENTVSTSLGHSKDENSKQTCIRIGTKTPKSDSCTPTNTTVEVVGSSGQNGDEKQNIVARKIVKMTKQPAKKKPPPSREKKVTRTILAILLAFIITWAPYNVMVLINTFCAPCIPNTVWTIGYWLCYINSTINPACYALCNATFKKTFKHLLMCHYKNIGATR

[4] = biological target: T3, 5-hydroxytryptamine receptor 3A (Homo sapiens, UniProt P46098); assay type: functional
T3 sequence (P46098 whole entry): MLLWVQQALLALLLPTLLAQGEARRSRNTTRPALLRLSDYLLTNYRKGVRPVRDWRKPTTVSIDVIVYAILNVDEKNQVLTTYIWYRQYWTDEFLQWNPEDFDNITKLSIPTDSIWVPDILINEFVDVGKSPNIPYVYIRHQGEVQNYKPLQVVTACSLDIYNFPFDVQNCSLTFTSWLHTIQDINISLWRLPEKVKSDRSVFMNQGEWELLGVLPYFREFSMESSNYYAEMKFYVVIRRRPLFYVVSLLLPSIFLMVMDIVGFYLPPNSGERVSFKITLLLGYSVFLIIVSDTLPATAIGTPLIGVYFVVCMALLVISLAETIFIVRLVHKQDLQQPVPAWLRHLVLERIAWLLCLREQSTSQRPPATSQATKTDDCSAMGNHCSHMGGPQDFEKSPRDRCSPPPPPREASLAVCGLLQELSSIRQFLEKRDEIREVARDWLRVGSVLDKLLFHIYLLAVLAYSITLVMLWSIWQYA

[5] = biological target: Beta-1 adrenergic receptor (Homo sapiens, UniProt P08588); assay type: functional
Chain of Beta-1 adrenergic receptor (P08588 whole entry): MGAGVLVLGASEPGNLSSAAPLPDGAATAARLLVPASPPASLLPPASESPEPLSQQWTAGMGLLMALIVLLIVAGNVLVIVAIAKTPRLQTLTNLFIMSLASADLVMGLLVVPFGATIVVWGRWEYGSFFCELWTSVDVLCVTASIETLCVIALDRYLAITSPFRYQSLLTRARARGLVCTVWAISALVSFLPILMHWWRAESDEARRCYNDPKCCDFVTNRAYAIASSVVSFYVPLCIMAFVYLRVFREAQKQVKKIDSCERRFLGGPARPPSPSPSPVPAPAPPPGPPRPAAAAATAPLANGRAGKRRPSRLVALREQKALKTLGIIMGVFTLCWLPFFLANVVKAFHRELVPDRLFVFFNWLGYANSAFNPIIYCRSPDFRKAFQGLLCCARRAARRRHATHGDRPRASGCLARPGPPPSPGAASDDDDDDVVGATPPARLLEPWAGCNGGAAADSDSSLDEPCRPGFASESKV

Histamine H2 receptor = Histamine H2 receptor (Homo sapiens, UniProt P25021); assay type: functional, cell-based
Chain of Histamine H2 receptor (P25021 whole entry): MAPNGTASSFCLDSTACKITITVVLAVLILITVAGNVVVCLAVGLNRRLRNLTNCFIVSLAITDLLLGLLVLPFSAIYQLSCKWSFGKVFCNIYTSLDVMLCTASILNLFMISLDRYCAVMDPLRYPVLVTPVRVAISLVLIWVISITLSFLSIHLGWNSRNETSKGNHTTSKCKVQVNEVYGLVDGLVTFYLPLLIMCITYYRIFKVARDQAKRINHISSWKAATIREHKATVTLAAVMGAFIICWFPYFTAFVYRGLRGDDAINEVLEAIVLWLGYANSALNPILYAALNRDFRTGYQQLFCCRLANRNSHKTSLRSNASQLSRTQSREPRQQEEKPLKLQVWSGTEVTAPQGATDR

Cannabinoid receptor 1 [6] = biological target: T1, Cannabinoid receptor 1; assay type: functional, cell-based; remark: listed apart in the source
[7] = biological target: T2, Muscarinic acetylcholine receptor M2; assay type: functional, cell-based; remark: listed apart in the source
D(3) dopamine receptor = D(3) dopamine receptor (Homo sapiens, UniProt P35462)
Chain of D(3) dopamine receptor (P35462 whole entry): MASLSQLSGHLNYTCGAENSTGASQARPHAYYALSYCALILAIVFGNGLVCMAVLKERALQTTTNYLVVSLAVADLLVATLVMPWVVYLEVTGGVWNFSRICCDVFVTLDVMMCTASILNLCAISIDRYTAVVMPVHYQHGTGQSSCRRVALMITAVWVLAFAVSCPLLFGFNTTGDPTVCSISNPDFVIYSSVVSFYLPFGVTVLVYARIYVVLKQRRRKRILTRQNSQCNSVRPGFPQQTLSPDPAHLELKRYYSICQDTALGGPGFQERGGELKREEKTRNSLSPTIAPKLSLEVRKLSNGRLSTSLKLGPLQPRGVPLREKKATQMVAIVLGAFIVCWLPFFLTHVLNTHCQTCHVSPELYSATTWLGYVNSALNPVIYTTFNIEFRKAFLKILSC

[8] = biological target: Sodium-dependent noradrenaline transporter (Homo sapiens, UniProt P23975)
Chain of Sodium-dependent noradrenaline transporter (P23975 whole entry): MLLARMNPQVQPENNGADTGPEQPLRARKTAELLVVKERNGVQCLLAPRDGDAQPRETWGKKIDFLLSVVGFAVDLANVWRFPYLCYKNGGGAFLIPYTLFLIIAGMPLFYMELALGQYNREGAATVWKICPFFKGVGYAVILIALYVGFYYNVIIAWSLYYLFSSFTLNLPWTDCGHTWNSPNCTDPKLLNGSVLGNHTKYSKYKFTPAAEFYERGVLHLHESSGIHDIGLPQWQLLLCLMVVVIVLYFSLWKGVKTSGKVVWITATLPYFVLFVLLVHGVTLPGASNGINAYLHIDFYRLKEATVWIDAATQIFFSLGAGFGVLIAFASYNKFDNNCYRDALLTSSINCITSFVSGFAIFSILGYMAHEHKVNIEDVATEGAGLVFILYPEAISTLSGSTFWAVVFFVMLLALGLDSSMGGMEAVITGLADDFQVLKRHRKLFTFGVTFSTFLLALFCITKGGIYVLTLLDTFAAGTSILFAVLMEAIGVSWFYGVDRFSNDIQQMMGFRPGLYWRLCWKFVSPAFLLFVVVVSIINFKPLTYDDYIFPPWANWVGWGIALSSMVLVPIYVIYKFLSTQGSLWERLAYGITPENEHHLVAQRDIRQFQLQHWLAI

Adenosine receptor A2a = Adenosine receptor A2a (Homo sapiens, UniProt P29274)
Chain of Adenosine receptor A2a (P29274 whole entry): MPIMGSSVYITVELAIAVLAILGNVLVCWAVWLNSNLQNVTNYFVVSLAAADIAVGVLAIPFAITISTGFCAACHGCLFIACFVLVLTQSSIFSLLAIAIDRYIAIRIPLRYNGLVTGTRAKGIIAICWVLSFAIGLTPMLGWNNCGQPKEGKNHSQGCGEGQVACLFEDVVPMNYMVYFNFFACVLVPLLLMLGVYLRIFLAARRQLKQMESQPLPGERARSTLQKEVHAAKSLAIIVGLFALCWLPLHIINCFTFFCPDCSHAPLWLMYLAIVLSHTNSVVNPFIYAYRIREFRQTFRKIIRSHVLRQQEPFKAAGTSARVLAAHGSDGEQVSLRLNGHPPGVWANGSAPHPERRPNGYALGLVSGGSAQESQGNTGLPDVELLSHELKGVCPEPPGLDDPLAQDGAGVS

Progesterone receptor = biological target: T4, Progesterone receptor (Homo sapiens, UniProt P06401); assay type: functional
T4 sequence (P06401 whole entry): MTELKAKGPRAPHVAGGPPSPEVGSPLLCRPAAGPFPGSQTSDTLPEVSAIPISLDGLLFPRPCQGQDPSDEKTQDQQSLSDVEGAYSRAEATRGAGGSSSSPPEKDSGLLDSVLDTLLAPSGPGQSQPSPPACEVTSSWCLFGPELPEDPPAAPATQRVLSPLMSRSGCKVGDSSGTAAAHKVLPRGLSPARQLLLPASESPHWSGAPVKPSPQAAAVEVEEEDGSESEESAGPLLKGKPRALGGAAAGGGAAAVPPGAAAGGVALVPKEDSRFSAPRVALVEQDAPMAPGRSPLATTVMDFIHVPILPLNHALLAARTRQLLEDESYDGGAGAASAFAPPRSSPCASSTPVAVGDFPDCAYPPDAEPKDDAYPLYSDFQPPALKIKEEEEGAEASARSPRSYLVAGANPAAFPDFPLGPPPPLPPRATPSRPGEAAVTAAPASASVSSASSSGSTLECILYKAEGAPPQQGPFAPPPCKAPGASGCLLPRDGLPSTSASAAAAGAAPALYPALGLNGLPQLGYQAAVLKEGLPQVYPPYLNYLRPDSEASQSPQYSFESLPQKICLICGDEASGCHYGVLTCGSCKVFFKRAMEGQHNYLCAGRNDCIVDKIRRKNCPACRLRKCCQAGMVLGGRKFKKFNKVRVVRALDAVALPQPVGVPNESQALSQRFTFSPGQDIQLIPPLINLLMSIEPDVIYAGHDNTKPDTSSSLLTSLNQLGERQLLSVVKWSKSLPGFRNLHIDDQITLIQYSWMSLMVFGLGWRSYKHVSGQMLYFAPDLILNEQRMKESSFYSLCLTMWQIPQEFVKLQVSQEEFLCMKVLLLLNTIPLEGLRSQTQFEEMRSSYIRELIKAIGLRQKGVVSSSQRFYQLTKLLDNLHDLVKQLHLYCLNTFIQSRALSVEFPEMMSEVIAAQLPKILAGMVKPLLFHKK

[9] = biological target: T5, Alpha-2A adrenergic receptor (Homo sapiens, UniProt P08913); assay type: functional, cell-based
T5 sequence (P08913 whole entry): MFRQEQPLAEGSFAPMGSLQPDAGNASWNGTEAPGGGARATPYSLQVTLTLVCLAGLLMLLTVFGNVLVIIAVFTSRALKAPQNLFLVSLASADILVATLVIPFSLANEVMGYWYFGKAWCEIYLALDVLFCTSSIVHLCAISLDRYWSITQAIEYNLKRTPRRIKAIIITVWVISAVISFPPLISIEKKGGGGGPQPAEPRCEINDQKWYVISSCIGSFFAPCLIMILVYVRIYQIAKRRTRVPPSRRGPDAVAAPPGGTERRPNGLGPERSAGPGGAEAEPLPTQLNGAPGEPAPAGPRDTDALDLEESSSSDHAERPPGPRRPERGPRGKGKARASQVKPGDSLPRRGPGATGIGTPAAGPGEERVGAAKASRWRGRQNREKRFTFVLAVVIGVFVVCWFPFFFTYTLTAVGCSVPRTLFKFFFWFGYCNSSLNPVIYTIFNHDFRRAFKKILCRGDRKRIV
Note: assay procedure not described here.

T1 sequence (P21554 whole entry): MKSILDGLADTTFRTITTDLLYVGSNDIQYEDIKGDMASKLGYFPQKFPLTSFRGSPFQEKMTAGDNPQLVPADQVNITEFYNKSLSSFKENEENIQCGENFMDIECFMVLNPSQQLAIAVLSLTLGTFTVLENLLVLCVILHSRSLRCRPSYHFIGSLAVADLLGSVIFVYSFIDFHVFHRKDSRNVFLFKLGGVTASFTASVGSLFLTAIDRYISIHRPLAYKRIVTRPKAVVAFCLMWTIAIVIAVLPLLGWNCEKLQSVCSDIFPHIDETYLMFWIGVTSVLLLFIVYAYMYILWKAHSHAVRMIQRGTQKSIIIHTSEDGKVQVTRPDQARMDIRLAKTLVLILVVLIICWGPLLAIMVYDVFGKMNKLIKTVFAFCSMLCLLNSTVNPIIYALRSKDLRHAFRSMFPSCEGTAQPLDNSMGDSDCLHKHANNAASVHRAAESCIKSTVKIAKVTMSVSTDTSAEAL
Chain of Gamma-aminobutyric acid receptor subunit alpha-1 (P62813 whole entry): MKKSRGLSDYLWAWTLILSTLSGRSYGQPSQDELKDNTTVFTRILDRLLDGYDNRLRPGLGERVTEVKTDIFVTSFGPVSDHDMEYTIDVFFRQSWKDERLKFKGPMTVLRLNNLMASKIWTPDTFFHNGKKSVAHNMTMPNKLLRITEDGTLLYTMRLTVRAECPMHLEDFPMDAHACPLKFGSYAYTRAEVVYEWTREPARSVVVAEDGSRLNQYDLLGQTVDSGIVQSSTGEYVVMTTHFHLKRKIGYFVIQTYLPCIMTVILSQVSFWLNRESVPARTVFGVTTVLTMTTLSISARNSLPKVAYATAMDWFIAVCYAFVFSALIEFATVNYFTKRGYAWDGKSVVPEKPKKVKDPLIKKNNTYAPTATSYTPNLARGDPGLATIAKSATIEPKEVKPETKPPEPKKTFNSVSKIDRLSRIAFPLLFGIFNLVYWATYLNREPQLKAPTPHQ

Row | Structure (SMILES) | AC50 [1] [µM] | AC50 (Cannabinoid receptor 1 [2]) [µM] | AC50 [3] [µM] | AC50 [4] [µM] | AC50 [5] [µM] | AC50 (Histamine H2 receptor) [µM] | AC50 (Cannabinoid receptor 1 [6]) [µM] | AC50 [7] [µM] | AC50 (D(3) dopamine receptor) [µM] | AC50 [8] [µM] | AC50 (Adenosine receptor A2a) [µM] | AC50 (Progesterone receptor) [µM] | AC50 [9] [µM]
1 | Clc1ccccc1C(c1ccccc1)(c1ccccc1)n1ccnc1 [CLOTRIMAZOLE] | > 10 | > 30 | > 10 | > 30 | > 10 | > 10 | > 30 | > 10 | > 30 | 19.9 |  |  | 
2 | Brc1c(NC2=NCCN2)ccc2nccnc12 [BRIMONIDINE] | > 30 | > 30 | > 30 | > 30 | > 30 | > 30 | > 30 | > 30 | > 30 | > 30 | > 30 | > 30 | 
3 | CC(CC1c2ccccc2CCc2ccccc21)CN(C)C (configuration not stated) [BUTRIPTYLINE] | > 30 | > 30 |  | > 30 |  | > 30 | > 30 |  | 1.7 |  |  |  | > 30
4 | COc1ccc2c3c1O[C@H]1[C@@H](O)CC[C@H]4[C@@H](C2)N(C)CC[C@@]341 [DIHYDROCODEINE] | > 30 | > 30 |  | > 30 |  | > 30 | > 30 |  | > 30 |  |  |  | > 30
5 | C[C@H]1COc2c(C3(N)CC3)c(F)cc3c(=O)c(C(=O)O)cn1c23 [PAZUFLOXACIN] | > 10 |  | > 10 | > 30 | > 10 | > 10 |  | > 10 | > 30 | > 10 | > 10 |  | > 10
6 | NC(=O)OCC(COC(N)=O)c1ccccc1 [FELBAMATE] | > 10 |  | > 10 | > 30 | > 10 | > 10 |  | > 10 | > 10 | > 10 | > 10 | > 10 | > 10
7 | C#C[C@]1(O)CC[C@H]2[C@@H]3[C@H](C)CC4=C(CCC(=O)C4)[C@H]3CC[C@@]21C [TIBOLONE] | > 30 | > 30 | > 30 | > 30 | > 30 | > 30 | > 30 | > 30 | > 30 | > 30 | > 30 | 0.4 | > 30
8 | CC/C(=C(\c1ccccc1)c1ccc(OCCN(C)C)cc1)c1ccccc1 [TAMOXIFEN] | > 10 |  | > 10 | > 30 | 17.6 | > 10 |  | > 10 | 2.9 | 8.83 |  |  | > 10
9 | Cc1nnc2n1-c1ccc(Cl)cc1C(c1ccccc1Cl)=NC2 [TRIAZOLAM] | > 10 | > 30 | > 10 | > 30 | > 10 | > 10 | > 30 | > 10 | > 30 | > 30 | > 30 |  | > 10
10 | O=C1C(O)=C([C@H]2CC[C@H](c3ccc(Cl)cc3)CC2)C(=O)c2ccccc21 [ATOVAQUONE] | > 30 |  | > 30 | > 30 | > 30 | > 30 |  | > 30 | > 30 | > 30 | > 30 | > 30 | > 30
11 | CC(C)(C)NCC(O)COc1cccc2c1CCC(=O)N2 (configuration not stated) [CARTEOLOL] | > 10 | > 30 | > 10 | > 30 |  | > 10 | > 30 | > 10 | > 30 | > 10 | > 10 | > 10 | > 10
12 | Cc1cc(C(C)(C)C)c(O)c(C)c1CC1=NCCN1 [OXYMETAZOLINE] |  | > 30 | 23 | > 30 |  |  | > 30 | > 30 | 20.1 | > 30 |  | > 30 | 
13 | CC1(C)CCC(CN2CCN(c3ccc(C(=O)NS(=O)(=O)c4ccc(NCC5CCOCC5)c([N+](=O)[O-])c4)c(Oc4cnc5[nH]ccc5c4)c3)CC2)=C(c2ccc(Cl)cc2)C1 [VENETOCLAX] |  |  |  |  |  |  |  |  | > 30 | 11 |  | > 30 | 
14 | Fc1ccc(C(c2ccccc2)(c2ccccc2F)n2ccnc2)cc1 (configuration not stated) [FLUTRIMAZOLE] | > 30 | > 30 | > 30 | > 30 | > 30 | > 30 | > 30 | > 30 | > 30 | > 30 | > 30 | > 30 | > 30
15 | COc1cccc(C2(O)CCCCC2CN(C)C)c1 (configuration not stated) [TRAMADOL] | > 10 | > 30 |  | > 30 | > 10 | > 10 | > 30 |  | > 10 | > 10 | > 30 |  | > 10
16 | COc1ccc(CCNCC(O)COc2cccc(C)c2)cc1OC (configuration not stated) [BEVANTOLOL] | > 10 |  | > 10 | > 30 | 0.026 | > 30 | > 30 | > 10 | > 30 | > 30 | > 10 | > 10 | > 10
17 | Cc1c(OCC(F)(F)F)ccnc1C[S+]([O-])c1nc2ccccc2[nH]1 (configuration not stated) [LANSOPRAZOLE] | > 10 | > 30 | > 10 | 2.3 | > 10 | > 10 | > 30 | > 10 | > 10 | > 10 | > 30 |  | > 10
